Among the data in patent publication US9145411B2, “Substituted amino-pyrimidine derivatives” (Asana Biosciences, LLC, priority 2012, dated 2015) are IC50 values, retold here.

Experiment [1] has as its target T1, PI3Kα (wild-type) (Homo sapiens, UniProt P42336).
T1 construct: made in house; host or cells: SF9 insect cells
In words: PI3 Kinase TR-FRET assay, PI3Kα (wild-type). The class given is biochemical. Conditions: wild-type P110/P85α, 10 μM ATP. In outline: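 Sf9-expressed, Ni-purified p110/p85α (5 ng) with PIP2 was preincubated with compound for 60 min at room temperature in buffer with 40 mM MgCl2 and 5 mM DTT. The reaction ran 30 min at room temperature with 10 μM PIP2 and 10 μM ATP. The TR-FRET 665/615 nm ratio was used to derive IC50 from dose-response curves.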
Background: Time-resolved FRET reads energy transfer from a long-lived donor to a nearby acceptor.

Experiment [2] deals with T2, mTOR kinase (Homo sapiens, UniProt P42345).
T2 construct: purchased Millipore, USA
In words: mTOR kinase TR-FRET assay. The format is biochemical. As to conditions: 20 μM ATP. In outline:
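Test compounds were pre-incubated 60 min with mTOR (5 ng), then ULight-p70 S6K (Thr389) peptide (50 nM) and ATP (20 μM) were added in HEPES 50 mM pH 7.5, EGTA, MnCl2 3 mM. After 60 min at room temperature, EDTA stop and Eu-anti-phospho antibody TR-FRET (665/615 nm) gave IC50 from sigmoidal variable-slope fits.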

For experiment [3], the system named is pAkt(T308). In words: In-cell Western assay, pAkt(T308), PC3 cells. Conditions: Homo sapiens, PC-3, 2 hours incubation. The class given is cell-based. The method, then:
Cells from human prostate cancer cell line PC3 (American Type Culture Collection (ATCC), Manassas, Va. 20108 USA) were seeded at an optimal density of 22,000 cell/well in 96-well plates containing Ham's F12K medium (90 μL) and incubated overnight. The compound dilutions were carried out in 100% DMSO followed by a dilution in the medium. Test compounds were added in serial dilutions to the wells and incubated for 2 hours. The cells were washed and fixed with 4% paraformaldehyde. After incubation at room temperature for 1 hour in the dark, blocking was done for 2 hours at room temperature. Primary antibodies for pAkt(S473) ([…] phosphorylated at serine 473), pAkt(T308) (Akt phosphorylated at threonine 308) and for pS6RP (S235/236) (phosphorylated at serine 235/236) (commercially available from Cell Signaling Technology®, whose protocol was followed for the in-cell western assay, were diluted to the required concentration and added to the corresponding wells followed by overnight incubation at 4° C. Eu-labeled rabbit (PE) (Perkin-Elmer USA catalog #AD0106) secondary antibody was added and incubated for 2 hours at room temperature. Delfia® enhancement solution (cat #1244-105, Perkin Elmer USA) was subsequently added to the plate before taking the reading at 615 nm with excitation wavelength of 340 nm, after which 0.5 μg/mL of Hoechst® 33258 dye (Catalog #86140-5, Sigma) was added to the plate and fluorescence emission was read at 460 nm with 355 nm excitation, to evaluate the correction factor. IC50 values were calculated using a sigmoidal dose-response curve fit in GraphPad Prism® v5 software.

Experiment [4] has as its system PC3 cells. In words: XTT assay for cell viability, PC3 cells. Conditions: Homo sapiens, PC-3; PC3 cell proliferation, 96 hours. The class given is cell-based. The method, then:
Using a commercial kit from Sigma Aldrich (Catalog #X34251) and following its protocol, PC3 cells in the log phase of growth were employed and seeded at an optimal density of 1000 cell/well on to 96 well plates and incubated for 24 hours followed by the addition of compounds of formula (I) in serial dilutions. Compound dilutions were made in DMSO. The cells were incubated with the compounds of formula (I) for 96 hours and XTT tetrazolium dye (Sigma, USA) was subsequently added and incubated at 37° C. After the color formation, absorbance was measured at 465 nm in a Spectramax® Gemini spectrophotometer. EC50 values were calculated using a sigmoidal dose response curve fit in GraphPad Prism® v5 software. The tested compounds of formula (I) which caused inhibition of PC3 cell proliferation as determined by this assay protocol are shown in Table 2.
(Formazan colour is commonly taken as a measure of viable cells.)

Each structure is given as a SMILES string. Where only a bound is given, the exact number is not on record here.

T1 sequence (P42336 whole entry, species assumed): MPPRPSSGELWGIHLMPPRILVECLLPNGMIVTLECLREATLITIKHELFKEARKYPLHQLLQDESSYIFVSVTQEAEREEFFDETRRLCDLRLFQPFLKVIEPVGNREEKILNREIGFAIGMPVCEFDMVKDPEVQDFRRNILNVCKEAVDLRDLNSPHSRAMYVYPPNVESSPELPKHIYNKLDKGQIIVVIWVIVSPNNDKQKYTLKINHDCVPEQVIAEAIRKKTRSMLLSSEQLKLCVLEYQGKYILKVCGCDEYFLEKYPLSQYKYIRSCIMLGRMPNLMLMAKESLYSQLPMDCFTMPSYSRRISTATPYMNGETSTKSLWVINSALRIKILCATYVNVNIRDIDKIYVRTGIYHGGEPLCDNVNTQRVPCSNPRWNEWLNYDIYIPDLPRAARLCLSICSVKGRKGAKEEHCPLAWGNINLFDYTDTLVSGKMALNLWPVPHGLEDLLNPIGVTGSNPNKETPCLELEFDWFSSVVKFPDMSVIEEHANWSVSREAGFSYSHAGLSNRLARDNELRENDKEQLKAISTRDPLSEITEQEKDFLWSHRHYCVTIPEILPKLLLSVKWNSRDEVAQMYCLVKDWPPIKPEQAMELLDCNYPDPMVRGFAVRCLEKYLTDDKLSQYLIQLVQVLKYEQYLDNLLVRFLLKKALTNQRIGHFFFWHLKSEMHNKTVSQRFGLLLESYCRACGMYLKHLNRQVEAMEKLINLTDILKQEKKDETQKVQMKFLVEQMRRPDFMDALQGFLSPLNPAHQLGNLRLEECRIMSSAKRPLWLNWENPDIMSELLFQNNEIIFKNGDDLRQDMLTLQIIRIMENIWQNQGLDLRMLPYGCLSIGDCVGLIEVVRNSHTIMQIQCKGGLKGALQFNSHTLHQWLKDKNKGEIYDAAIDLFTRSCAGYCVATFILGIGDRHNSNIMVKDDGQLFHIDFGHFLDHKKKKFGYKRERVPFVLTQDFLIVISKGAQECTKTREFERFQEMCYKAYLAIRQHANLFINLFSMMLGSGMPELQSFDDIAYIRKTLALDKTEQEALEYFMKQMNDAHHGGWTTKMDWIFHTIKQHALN
T1 sequence (P27986 whole entry partner, species assumed): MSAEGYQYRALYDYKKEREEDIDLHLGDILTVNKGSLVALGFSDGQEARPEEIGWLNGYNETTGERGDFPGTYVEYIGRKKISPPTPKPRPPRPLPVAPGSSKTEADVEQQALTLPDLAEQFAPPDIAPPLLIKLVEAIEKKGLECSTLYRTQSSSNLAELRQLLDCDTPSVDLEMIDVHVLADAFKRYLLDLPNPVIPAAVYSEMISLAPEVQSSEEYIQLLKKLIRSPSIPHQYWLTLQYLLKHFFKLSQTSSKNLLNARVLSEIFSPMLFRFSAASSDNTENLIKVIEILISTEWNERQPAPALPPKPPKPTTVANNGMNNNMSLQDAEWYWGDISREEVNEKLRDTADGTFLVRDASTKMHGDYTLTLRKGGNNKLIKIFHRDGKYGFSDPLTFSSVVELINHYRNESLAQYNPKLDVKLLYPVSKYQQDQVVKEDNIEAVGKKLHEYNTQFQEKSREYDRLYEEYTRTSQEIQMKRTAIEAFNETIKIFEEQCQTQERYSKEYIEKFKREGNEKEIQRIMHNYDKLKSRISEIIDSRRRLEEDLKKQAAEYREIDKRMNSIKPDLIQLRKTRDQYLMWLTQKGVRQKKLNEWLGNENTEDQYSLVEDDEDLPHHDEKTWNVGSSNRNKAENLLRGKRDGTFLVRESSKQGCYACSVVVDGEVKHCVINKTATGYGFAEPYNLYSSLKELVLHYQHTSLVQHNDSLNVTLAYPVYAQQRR
T2 sequence (P42345 1362-2549 limits assumed): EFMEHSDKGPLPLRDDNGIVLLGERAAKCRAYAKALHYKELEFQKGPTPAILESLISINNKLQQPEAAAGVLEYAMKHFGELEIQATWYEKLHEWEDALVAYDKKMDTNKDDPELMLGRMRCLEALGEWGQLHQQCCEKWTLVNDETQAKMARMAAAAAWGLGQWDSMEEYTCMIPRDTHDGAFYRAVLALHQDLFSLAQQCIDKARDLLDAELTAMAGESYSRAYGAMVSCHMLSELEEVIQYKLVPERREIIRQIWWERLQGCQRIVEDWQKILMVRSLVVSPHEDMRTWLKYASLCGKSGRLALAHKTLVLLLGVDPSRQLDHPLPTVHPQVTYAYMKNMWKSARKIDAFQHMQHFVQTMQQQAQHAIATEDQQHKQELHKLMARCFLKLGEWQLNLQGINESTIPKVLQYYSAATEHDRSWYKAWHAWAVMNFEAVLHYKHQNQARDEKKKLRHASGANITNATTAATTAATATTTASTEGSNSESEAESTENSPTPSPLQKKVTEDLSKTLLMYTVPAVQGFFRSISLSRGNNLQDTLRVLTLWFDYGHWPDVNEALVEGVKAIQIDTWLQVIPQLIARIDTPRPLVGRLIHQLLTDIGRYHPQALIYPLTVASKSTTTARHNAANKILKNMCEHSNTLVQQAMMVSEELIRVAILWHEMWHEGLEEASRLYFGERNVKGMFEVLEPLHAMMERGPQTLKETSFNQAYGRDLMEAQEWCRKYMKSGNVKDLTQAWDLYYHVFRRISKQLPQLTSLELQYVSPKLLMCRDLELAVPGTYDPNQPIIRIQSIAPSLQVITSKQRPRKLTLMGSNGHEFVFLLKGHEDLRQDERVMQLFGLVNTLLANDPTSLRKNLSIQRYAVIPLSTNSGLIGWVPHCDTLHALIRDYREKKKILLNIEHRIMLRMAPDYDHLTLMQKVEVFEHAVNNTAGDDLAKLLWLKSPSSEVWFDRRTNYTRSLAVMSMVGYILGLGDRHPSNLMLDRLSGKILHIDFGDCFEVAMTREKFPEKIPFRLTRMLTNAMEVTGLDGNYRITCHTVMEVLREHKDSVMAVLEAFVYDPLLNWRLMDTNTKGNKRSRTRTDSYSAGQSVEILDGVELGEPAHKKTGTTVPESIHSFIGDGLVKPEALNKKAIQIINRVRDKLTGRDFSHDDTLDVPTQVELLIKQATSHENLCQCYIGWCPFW

One may read the IC50 as the point on the concentration scale where inhibition reaches its midpoint. A high value points to a need for much substance. With `N#CCC(=O)Nc1cccc(-c2cnc3c(N4CCOCC4)nc(-c4cnc(N)nc4)nc3c2)c1` [Example 53, N-(3-(2-(2-amino-pyrimidin-5-yl)-4-morpholinopyrido[3,2-d]pyrimidin-7-yl)phenyl)-2-cyanoacetamide], the IC50 in experiment [1] is < 50 nM; in experiment [2], < 50 nM; in experiment [3], 100 to 500 nM; in experiment [4], 100 to 500 nM.
`CN1CCN(C(=O)c2ccc(-c3cnc4c(N5CCOCC5)nc(-c5cnc(N)nc5)nc4c3)o2)CC1` [Example 5, (5-(2-(2-Aminopyrimidin-5-yl)-4-morpholinopyrido[3,2-d]pyrimidin-7-yl)furan-2-yl)(4-methylpiperazin-1-yl)methanone]: the IC50 in experiment [1] was < 50 nM; in experiment [2] it was 50 to 200 nM; in experiment [3], 100 to 500 nM.
Turning to `Nc1ncc(-c2nc(N3CCOCC3)c3ncc(-c4cccc(NC(=O)CO)c4)cc3n2)cn1` [Example 50, N-(3-(2-(2-amino-pyrimidin-5-yl)-4-morpholinopyrido[3,2-d]pyrimidin-7-yl)phenyl)-2-hydroxyacetamide], the 50% inhibitory concentration (IC50) in experiment [1] is < 50 nM; in experiment [2] it was < 50 nM; in experiment [3], 501 to 5000 nM; in experiment [4], 100 to 500 nM.
On to `Nc1ncc(-c2nc(N3CCOCC3)c3ncc(-c4cccc(NC(=O)c5ccco5)c4)cc3n2)cn1` [Example 67, N-(3-(2-(2-amino-pyrimidin-5-yl)-4-morpholinopyrido[3,2-d]pyrimidin-7-yl)-phenyl)furan-2-carboxamide], for which the half-maximal inhibitory concentration (IC50) in experiment [1] was < 50 nM; in experiment [2] it was < 50 nM; in experiment [3] it was 100 to 500 nM; in experiment [4] it was 100 to 500 nM.
As to `CC(C)CCC(=O)Nc1cccc(-c2cnc3c(N4CCOCC4)nc(-c4cnc(N)nc4)nc3c2)c1` [Example 66, N-(3-(2-(2-amino-pyrimidin-5-yl)-4-morpholinopyrido[3,2-d]pyrimidin-7-yl)phenyl)-4-methylpentanamide], the IC50 in experiment [1] is < 50 nM; in experiment [2], < 50 nM; in experiment [3], 501 to 5000 nM; in experiment [4], 100 to 500 nM.
`CN1CCN(CC(=O)Nc2cccc(-c3cnc4c(N5CCOCC5)nc(-c5cnc(N)nc5)nc4c3)c2F)CC1` [Example 86, N-(3-(2-(2-amino-pyrimidin-5-yl)-4-morpholinopyrido[3,2-d]-pyrimidin-7-yl)-2-fluoro-phenyl)-2-(4-methyl-piperazin-1-yl)acetamide]: the IC50 in experiment [1] is < 50 nM; in experiment [2] it was 50 to 200 nM; in experiment [3], 501 to 5000 nM.
Turning to `CN1CCN(c2cccc(-c3cnc4c(N5CCOCC5)nc(-c5cnc(N)nc5)nc4c3)c2)CC1` [Example 101, 5-(7-(3-(4-methyl-piperazin-1-yl)phenyl)-4-morpholinopyrido[3,2-d]-pyrimidin-2-yl)pyrimidin-2-amine], the results for the IC50 in experiment [1], in experiment [2] and in experiment [4] were < 50 nM, 50 to 200 nM and 100 to 500 nM, respectively.
On to `Nc1ncc(-c2nc(N3CCOCC3)c3ncc(-c4cccc(NC(=O)c5cnccn5)c4)cc3n2)cn1` [Example 64, N-(3-(2-(2-amino-pyrimidin-5-yl)-4-morpholinopyrido[3,2-d]pyrimidin-7-yl)-phenyl)pyrazine-2-carboxamide], for which the 50% inhibitory concentration (IC50) in experiment [1] was < 50 nM; in experiment [3], 100 to 500 nM.
Turning to `CN1CCN(c2ccc(-c3cnc4c(N5CCOCC5)nc(-c5cnc(N)nc5)nc4c3)cc2NC(=O)C2CC2)CC1` [Example 117, N-(5-(2-(2-amino-pyrimidin-5-yl)-4-morpholinopyrido[3,2-d]pyrimidin-7-yl)-2-(4-methylpiperazin-1-yl)-phenyl)cyclopropane-carboxamide], the values for the IC50 in experiment [1], in experiment [2] and in experiment [4] were < 50 nM, < 50 nM and 100 to 500 nM, respectively.
On to `N#CC1(C(=O)Nc2ccc(F)c(-c3cnc4c(N5CCOCC5)nc(-c5cnc(N)nc5)nc4c3)c2)CC1` [Example 124, N-(3-(2-(2-amino-pyrimidin-5-yl)-4-morpholinopyrido[3,2-d]pyrimidin-7-yl)-4-fluorophenyl)-1-cyanocyclopropane-carboxamide], for which the half-inhibitory concentration (IC50) in experiment [1] is < 50 nM; in experiment [2] it was 50 to 200 nM; in experiment [4] it was > 1000 nM.
`CN(C)CCNC(=O)c1cccc(-c2cnc3c(N4CCOCC4)nc(-c4cnc(N)nc4)nc3c2)c1` [Example 102, 3-(2-(2-aminopyrimidin-5-yl)-4-morpholinopyrido[3,2-d]-pyrimidin-7-yl)-N-(2-(dimethylamino)ethyl)-benzamide]: the IC50 in experiment [1] is < 50 nM; in experiment [2] it was 50 to 200 nM; in experiment [4], 100 to 500 nM.
In the same order, the values of `Nc1ncc(-c2nc(N3CCOCC3)c3ncc(-c4ccc5c(c4)NC(=O)CO5)cc3n2)cn1` [Example 111, 6-(2-(2-aminopyrimidin-5-yl)-4-morpholinopyrido[3,2-d]pyrimidin-7-yl)-2H-benzo[b][1,4]oxazin-3(4H)-one] are < 50 nM, 50 to 200 nM and 100 to 500 nM.
In the same order, the values of `CN1CCN(c2cncc(-c3cnc4c(N5CCOCC5)nc(-c5cnc(N)nc5)nc4c3)c2)CC1` [Example 100, 5-(7-(5-(4-methyl-piperazin-1-yl)pyridin-3-yl)-4-morpholino-pyrido[3,2-d]pyrimidin-2-yl)pyrimidin-2-amine] are < 50 nM, 50 to 200 nM and 501 to 5000 nM.
Consider `CC(F)C(=O)Nc1cccc(-c2cnc3c(N4CCOCC4)nc(-c4cnc(N)nc4)nc3c2)c1` (stereo not drawn) [Example 51, N-(3-(2-(2-amino-pyrimidin-5-yl)-4-morpholinopyrido[3,2-d]pyrimidin-7-yl)phenyl)-2-fluoropropanamide], for which the IC50 in experiment [1] was < 50 nM; in experiment [2] it was < 50 nM; in experiment [4] it was 100 to 500 nM.
As for `CNC(=O)Nc1cccc(-c2ccc3c(N4CCOCC4)nc(-c4cnc(N)nc4)nc3c2)c1` [Example 15, 1-(3-(2-(2-amino-pyrimidin-5-yl)-4-morpholinoquinazolin-7-yl)phenyl)-3-methylurea], the IC50 was 201 to 10000 nM in experiment [1], < 50 nM in experiment [2] and 501 to 5000 nM in experiment [4].
In the same order, the values of `Nc1ncc(-c2nc(N3CCOCC3)c3ncc(-c4cccc(N5CCNCC5)c4)cc3n2)cn1` [Example 106, 5-(4-morpholino-7-(3-(piperazin-1-yl)-phenyl)pyrido[3,2-d]-pyrimidin-2-yl)pyrimidin-2-amine] are < 50 nM, 50 to 200 nM and 501 to 5000 nM.
Taken in the same sequence, the figures for `Nc1ncc(-c2nc(N3CCOCC3)c3ncc(-c4cccc(NC(=O)N5CCOCC5)c4)cc3n2)cn1` [Example 10, N-(3-(2-(2-aminopyrimidin-5-yl)-4-morpholinopyrido[3,2-d]pyrimidin-7-yl)-phenyl)morpholine-4-carboxamide] were < 50 nM, < 50 nM and 501 to 5000 nM.
Taken in the same sequence, the figures for `N#CC1(C(=O)Nc2cccc(-c3cnc4c(N5CCOCC5)nc(-c5cnc(N)nc5)nc4c3)c2F)CC1` [Example 125, N-(3-(2-(2-amino-pyrimidin-5-yl)-4-morpholinopyrido[3,2-d]pyrimidin-7-yl)-2-fluorophenyl)-1-cyanocyclopropane-carboxamide] were < 50 nM, < 50 nM and 100 to 500 nM.
On to `Nc1ncc(-c2nc(N3CCOCC3)c3ncc(-c4ccc(C(=O)NC5CC5)cc4)cc3n2)cn1` [Example 4, 4-(2-(2-Aminopyrimidin-5-yl)-4-morpholinopyrido[3,2-d]pyrimidin-7-yl)-N-cyclopropylbenzamide], for which the IC50 in experiment [1] is < 50 nM; in experiment [2], < 50 nM; in experiment [4], < 100 nM.
